The values below are quoted from earlier work in patent US10434129B2, “Composition to enhance HDL cholesterol and to decrease intima-media thickening in animals and humans and a method for its preparation” (ARJUNA NATURAL LTD, priority 2003, dated 2019).

Each structure is given as a SMILES string.

Series [1] has as its system Human umbilical vein endothelial cells (HUVEC). To be noted: HUVEC incubated with ox-LDL.
In series [2] the test system is rat vascular smooth muscle cells (VSMC).

With `O=C(O[C@@H]1O[C@@H]2COC(=O)c3cc(O)c(O)c(O)c3-c3c(cc(O)c(O)c3O)C(=O)O[C@H]([C@H]1O)[C@@H]2O)c1cc(O)c(O)c(O)c1` [corilagin], the “Malondialdehyde (MDA) in the culture media” value in series [1] is given as “reduce MDA”. Further, the “adhesion of HUVEC to monocytes” value in series [1] (then monocytes) is recorded as “prevented HUVEC from adhering to monocytes”. Moreover, in series [2], the “VSMC proliferation induced by ox-LDL” value is given as “inhibited VSMC proliferation”.
